Data published in article PMC9518264, “Design and synthesis of novel quinazolinone-based derivatives as EGFR inhibitors with antitumor activity” (Journal of Enzyme Inhibition and Medicinal Chemistry, 2022).
Read-outs that look alike come from different tables or passages of the source.

Columns and labels:
SF-268 = assay: cells; format: cell-based; settings: Homo sapiens
OVCAR-8 = assay: cells; format: cell-based; settings: Homo sapiens
SK-OV-3 = assay: cells; format: cell-based; settings: Homo sapiens
KM12 = assay: cells; format: cell-based; settings: Homo sapiens
MDA-MB-435 = assay: cells; format: cell-based; settings: Homo sapiens
LOX IMIV = assay: cells; format: cell-based; settings: Homo sapiens, 60 cell, read-out: growth inhibition % (GI%)
HS 578T = assay: cells; format: cell-based; settings: Homo sapiens, read-out: growth inhibition % (GI%)
IGROV1 = assay: cells; format: cell-based; settings: Homo sapiens
MDA-MB-231/ATCC = assay: NCI 60 cell line antiproliferative screening (SRB), Breast cancer; format: cell-based; settings: Homo sapiens, MDA-MB-231, read-out: growth inhibition % (GI%)
K-562 = assay: cells; format: cell-based; settings: Homo sapiens
EGFR = EGFR (Homo sapiens, UniProt P00533); assay: In vitro EGFR kinase inhibitory assay (Kinase-Glo Max luminescence kit); format: biochemical
M14 = assay: cells; format: cell-based; settings: Homo sapiens
CAKI-1 = assay: cells; format: cell-based; settings: Homo sapiens
RXF 393 = assay: cells; format: cell-based; settings: Homo sapiens
[1] = SF-268, 10 μM, read-out: growth inhibition % (GI%)
[2] = OVCAR-8, 10 μM, read-out: growth inhibition % (GI%)
[3] = SK-OV-3, 10 μM, read-out: growth inhibition % (GI%)
[4] = KM12, 10 μM, read-out: growth inhibition % (GI%)
[5] = MDA-MB-435, 10 μM, read-out: growth inhibition % (GI%)
[6] = IGROV-1, IGROV1, 10 μM, read-out: growth inhibition % (GI%)
[7] = K562, K-562, 10 μM, read-out: growth inhibition % (GI%)
[8] = SF-268, read-out: growth inhibition % (GI%)
[9] = OVCAR-8, read-out: growth inhibition % (GI%)
[10] = SK-OV-3, read-out: growth inhibition % (GI%)
[11] = KM12, read-out: growth inhibition % (GI%)
[12] = MDA-MB-435, read-out: growth inhibition % (GI%)
[13] = IGROV-1, read-out: growth inhibition % (GI%)
[14] = K562, read-out: growth inhibition % (GI%)
[15] = M14, read-out: growth inhibition % (GI%)
[16] = CAKI-1, read-out: growth inhibition % (GI%)
[17] = RXF 393, read-out: growth inhibition % (GI%)

EGFR, sequence (P00533 669-1210): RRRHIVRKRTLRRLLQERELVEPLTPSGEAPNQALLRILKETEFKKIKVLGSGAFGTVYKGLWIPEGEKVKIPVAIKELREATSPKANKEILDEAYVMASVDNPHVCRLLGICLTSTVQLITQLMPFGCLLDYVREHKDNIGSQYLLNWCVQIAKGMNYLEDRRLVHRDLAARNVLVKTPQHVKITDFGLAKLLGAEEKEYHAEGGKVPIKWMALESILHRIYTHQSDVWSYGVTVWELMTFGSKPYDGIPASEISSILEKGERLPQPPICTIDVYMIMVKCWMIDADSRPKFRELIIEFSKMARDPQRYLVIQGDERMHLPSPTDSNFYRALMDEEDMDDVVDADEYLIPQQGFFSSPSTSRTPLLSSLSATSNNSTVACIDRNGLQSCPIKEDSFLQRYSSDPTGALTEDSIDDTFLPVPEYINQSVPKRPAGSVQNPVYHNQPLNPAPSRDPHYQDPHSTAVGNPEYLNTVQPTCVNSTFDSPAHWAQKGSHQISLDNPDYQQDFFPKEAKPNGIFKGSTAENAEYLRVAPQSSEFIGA

Compound | inhibition at 10 µM (SF-268; [1]) [%] | inhibition at 10 µM (OVCAR-8; [2]) [%] | inhibition at 10 µM (SK-OV-3; [3]) [%] | inhibition at 10 µM (KM12; [4]) [%] | inhibition at 10 µM (MDA-MB-435; [5]) [%] | inhibition at 10 µM (LOX IMIV; LOX IMIV, 10 μM) [%] | inhibition at 10 µM (HS 578T; HS 578T, 10 μM) [%] | inhibition at 10 µM (IGROV1; [6]) [%] | inhibition at 10 µM (MDA-MB-231/ATCC) [%] | inhibition at 10 µM (K-562; [7]) [%] | inhibition at 10 µM (SF-268; [8]) [%] | inhibition at 10 µM (OVCAR-8; [9]) [%] | inhibition at 10 µM (SK-OV-3; [10]) [%] | IC50 (EGFR) [nM] | inhibition at 10 µM (KM12; [11]) [%] | inhibition at 10 µM (MDA-MB-435; [12]) [%] | inhibition at 10 µM (LOX IMIV) [%] | inhibition at 10 µM (HS 578T; Hs-578T) [%] | inhibition at 10 µM (IGROV1; [13]) [%] | inhibition at 10 µM (K-562; [14]) [%] | also measured
COc1ccc(Oc2ccc(C=NNC(=O)CSc3nc4ccccc4c(=O)n3-c3ccccc3)cc2)cc1 [6c, N'-(4–(4-methoxyphenoxy)benzylidene)-2-((4-oxo-3-phenyl-3,4-dihydroquinazolin-2-yl)thio)acetohydrazide] | < 15 | < 15 | < 15 | < 15 | < 15 | < 15 | < 15 | < 15 | < 15 | < 15 | – | – | – | – | – | – | – | – | – | – | –
O=C(CSc1nc2ccccc2c(=O)n1-c1ccccc1)NN=Cc1ccc(N2CCOCC2)cc1 [6h, N'-(4-morpholinobenzylidene)-2-((4-oxo-3-phenyl-3,4-dihydroquinazolin-2-yl)thio)acetohydrazide] | < 15 | < 15 | < 15 | < 15 | < 15 | < 15 | < 15 | < 15 | < 15 | < 15 | – | – | – | – | – | – | – | – | – | – | –
O=C(CSc1nc2ccccc2c(=O)n1-c1ccc(Cl)cc1)NN=Cc1ccc(Oc2ccc(Br)cc2)cc1 [6e, N'-(4–(4-bromophenoxy)benzylidene)-2-((3–(4-chlorophenyl)-4-oxo-3,4-dihydroquinazolin-2-yl)thio)acetohydrazide] | < 15 | < 15 | < 15 | < 15 | < 15 | < 15 | < 15 | < 15 | < 15 | < 15 | – | – | – | – | – | – | – | – | – | – | –
COc1ccc(Oc2ccc(C=NNC(=O)CSc3nc4ccccc4c(=O)n3-c3ccc(Cl)cc3)cc2)cc1 [6f, 2-((3–(4-chlorophenyl)-4-oxo-3,4-dihydroquinazolin-2-yl)thio)-N'-(4–(4-methoxyphenoxy)benzylidene)acetohydrazide] | – | – | – | – | – | – | – | – | 53.3 | – | 42.1 | < 15 | 33.7 | 133 ± 8 | 22.8 | < 15 | 85.3 | > 100 | 51.4 | 41.6 | –
CN1CCN(c2ccc(C=NNC(=O)CSc3nc4ccccc4c(=O)n3-c3ccc(Cl)cc3)cc2)CC1 [6l, 2-((3–(4-chlorophenyl)-4-oxo-3,4-dihydroquinazolin-2-yl)thio)-N'-(4–(4-methylpiperazin-1-yl)benzylidene)acetohydrazide] | < 15 | < 15 | < 15 | < 15 | < 15 | 15.2 | < 15 | < 15 | < 15 | < 15 | – | – | – | – | – | – | – | – | – | – | –
O=C(CSc1nc2ccccc2c(=O)n1-c1ccccc1)NN=Cc1ccc(Oc2ccc(Br)cc2)cc1 [6b, N'-(4–(4-bromophenoxy)benzylidene)-2-((4-oxo-3-phenyl-3,4-dihydroquinazolin-2-yl)thio) acetohydrazide] | – | – | – | – | – | – | – | – | 49.1 | – | 15.7 | 36.7 | 15.5 | 487 ± 30 | 23.7 | 19.2 | 79 | 39.2 | 34.5 | 37.5 | inhibition at 10 µM (M14; [15]): 43.7%; inhibition at 10 µM (CAKI-1; [16]): 29.2%; inhibition at 10 µM (RXF 393; [17]): 37.8%
O=C(CSc1nc2ccccc2c(=O)n1-c1ccccc1)NN=Cc1ccc(N2CCCCC2)cc1 [6g, 2-((4-oxo-3-phenyl-3,4-dihydroquinazolin-2-yl)thio)-N'-(4-(piperidin-1-yl)benzylidene) acetohydrazide] | < 15 | < 15 | < 15 | < 15 | < 15 | < 15 | < 15 | < 15 | < 15 | 26.8 | – | – | – | – | – | – | – | – | – | – | inhibition at 10 µM (M14; M14, 10 μM, read-out: growth inhibition % (GI%)): < 15%; melting point: 164 to 166 °C; inhibition at 10 µM (CAKI-1; CAKI-1, 10 μM, read-out: growth inhibition % (GI%)): 22%; inhibition at 10 µM (RXF 393; RXF 393, 10 μM, read-out: growth inhibition % (GI%)): < 15%
CN1CCN(c2ccc(C=NNC(=O)CSc3nc4ccccc4c(=O)n3-c3ccccc3)cc2)CC1 [6i, N'-(4–(4-methylpiperazin-1-yl)benzylidene)-2-((4-oxo-3-phenyl-3,4-dihydroquinazolin-2-yl)thio) acetohydrazide] | < 15 | < 15 | < 15 | < 15 | < 15 | < 15 | < 15 | < 15 | < 15 | < 15 | – | – | – | – | – | – | – | – | – | – | –
O=C(CSc1nc2ccccc2c(=O)n1-c1ccc(Cl)cc1)NN=Cc1ccc(N2CCCCC2)cc1 [6j, 2-((3–(4-chlorophenyl)-4-oxo-3,4-dihydroquinazolin-2-yl)thio)-N'-(4-(piperidin-1-yl)benzylidene) acetohydrazide] | – | – | – | – | – | – | – | – | 28.1 | – | 65.3 | 34.7 | 69.9 | 478 ± 29 | 3.59 | < 15 | 56.5 | 62.1 | 44.5 | 26.4 | –
O=C(CSc1nc2ccccc2c(=O)n1-c1ccc(Cl)cc1)NN=Cc1ccc(N2CCOCC2)cc1 [6k, 2-((3–(4-chlorophenyl)-4-oxo-3,4-dihydroquinazolin-2-yl)thio)-N'-(4-morpholinobenzylidene) acetohydrazide] | < 15 | < 15 | < 15 | < 15 | < 15 | < 15 | < 15 | < 15 | < 15 | < 15 | – | – | – | – | – | – | – | – | – | – | –
O=C(CSc1nc2ccccc2c(=O)n1-c1ccccc1)NN=Cc1ccc(Oc2ccc(Cl)cc2)cc1 [6a, N'-(4–(4-chlorophenoxy)benzylidene)-2-((4-oxo-3-phenyl-3,4-dihydroquinazolin-2-yl)thio)acetohydrazide] | – | – | – | – | – | – | – | – | 50.8 | – | < 15 | 40.8 | 16.8 | 202 ± 12 | 16.3 | 15.4 | 86 | 41.1 | 50.9 | 38.8 | inhibition at 10 µM (M14; [15]): 51.2%; inhibition at 10 µM (CAKI-1; [16]): 40.8%; inhibition at 10 µM (RXF 393; [17]): 58%
